# Legend:
# Format in all cases: in vivo, Wistar rats
# [1] = tested on: STZ-induced diabetic rats; assay: Study No 1: body weight, food intake and water intake in STZ-induced diabetic rats; details: for AVERAGE WATER INTAKE: oral
# Procedure: (§1) In this experiment 48 Wistar rats weighing 130-150 g of either sex were divided randomly into 8 groups consisting of 6 rats each. The study drugs suspended in vehicle [0.1% w/v suspension of Tween 80 and carboxymethylcellulose (CMC) in water] were administered for orally for 21 days. Group 1 (normal vehicle control) consisted of normal rats that neither received streptozotocin nor any test drug; Group 2 served as streptozotocin induced diabetic control (Diabetes was induced in rats by single administration of streptozotocin (60 mg/kg/i.p) dissolved in 0.1 M-citrate buffer, pH 4.5). Forty-eight hours later, blood samples were collected and glucose levels were determined to confirm the development of diabetes. […] Group 3 was diabetic rats treated with dose equivalent to human therapeutic dose of sitagliptin (STG) (11 mg/kg); Group 4 was diabetic rats treated with dose equivalent to human therapeutic dose of Hydroxychloroquine (HCQ) (46 mg/kg), Group 5 was diabetic rats treated with combination of HCQ 46 mg/kg and STG11 mg/kg; […] For other biochemical parameters i.e. […] Other parameters like body weight, food intake and water intake were evaluated weekly till day 21st.
# [2] = tested on: STZ-induced diabetic rats; assay: Study No 1: biochemical parameters in STZ-induced diabetic rats; details: after 21 days
# Procedure: as §1
# [3] = tested on: STZ-induced diabetic rats; assay: Study No 1: blood glucose in STZ-induced diabetic rats (HCQ with sitagliptin)
# Procedure: In this experiment 48 Wistar rats weighing 130-150 g of either sex were divided randomly into 8 groups consisting of 6 rats each. The study drugs suspended in vehicle [0.1% w/v suspension of Tween 80 and carboxymethylcellulose (CMC) in water] were administered for orally for 21 days. Group 1 (normal vehicle control) consisted of normal rats that neither received streptozotocin nor any test drug; Group 2 served as streptozotocin induced diabetic control (Diabetes was induced in rats by single administration of streptozotocin (60 mg/kg/i.p) dissolved in 0.1 M-citrate buffer, pH 4.5). Forty-eight hours later, blood samples were collected and glucose levels were determined to confirm the development of diabetes.
# Blood glucose level was measured in normal and experimental rats at 1st, 7th, 14th and 21st day of administration. For other biochemical parameters i.e. Insulin, HbA1c, Triglycerides, Total Cholesterol, HDL, SGOT, SGPT, Total Protein, Albumin, Creatinine and Urea Blood samples were collected 1 h after the last dose administration from 18 h fasted rats through the retro-orbital plexus under chloroform anesthesia and analyzed using autoanalyzer (Microlab 2000). Other parameters like body weight, food intake and water intake were evaluated weekly till day 21st.
# [4] = subtherapeutic dose: STG 5.5, HCQ 23, STG+HCQ 5.5+23 mg/kg/day oral
# [5] = therapeutic dose: STG 11, HCQ 46, STG+HCQ 11+46 mg/kg/day oral
compound,measurement,setting,value
"N[C@@H](CC(=O)N1CCn2c(nnc2C(F)(F)F)C1)Cc1cc(F)c(F)cc1F [STG, Sitagliptin]",AVERAGE WATER INTAKE,"[1]; Day 1, Sub-The (subtherapeutic dose)",28.33 mL
same,AVERAGE WATER INTAKE,"[1]; Day 1, The (therapeutic dose)",30.67 mL
same,Body Weight,"[1]; Day 1, subtherapeutic dose: STG 5.5, HCQ 23, STG+HCQ 5.5+23 mg/kg oral",145.83 ± 12.61 g
same,AVERAGE FOOD INTAKE,"[1]; Day 1, subtherapeutic dose: STG 5.5, HCQ 23, combination 5.5+23 mg/kg oral",11.50 g
same,Body Weight,"[1]; Day 1, therapeutic dose: STG 11, HCQ 46, STG+HCQ 11+46 mg/kg oral",137.83 ± 6.49 g
same,AVERAGE FOOD INTAKE,"[1]; Day 1, therapeutic dose: STG 11, HCQ 46, combination 11+46 mg/kg oral",12.17 g
same,AVERAGE WATER INTAKE,"[1]; Day 7, Sub-The (subtherapeutic dose)",27.17 mL
same,AVERAGE WATER INTAKE,"[1]; Day 7, The (therapeutic dose)",29.00 mL
same,Body Weight,"[1]; Day 7, subtherapeutic dose: STG 5.5, HCQ 23, STG+HCQ 5.5+23 mg/kg oral",147.83 ± 12.37 g
same,AVERAGE FOOD INTAKE,"[1]; Day 7, subtherapeutic dose: STG 5.5, HCQ 23, combination 5.5+23 mg/kg oral",11.83 g
same,Body Weight,"[1]; Day 7, therapeutic dose: STG 11, HCQ 46, STG+HCQ 11+46 mg/kg oral",142.67 ± 7.45 g
same,AVERAGE FOOD INTAKE,"[1]; Day 7, therapeutic dose: STG 11, HCQ 46, combination 11+46 mg/kg oral",10.67 g
same,AVERAGE WATER INTAKE,"[1]; Day 14, Sub-The (subtherapeutic dose)",26.67 mL
same,AVERAGE WATER INTAKE,"[1]; Day 14, The (therapeutic dose)",28.50 mL
same,Body Weight,"[1]; Day 14, subtherapeutic dose: STG 5.5, HCQ 23, STG+HCQ 5.5+23 mg/kg oral",150.50 ± 12.31 g
same,AVERAGE FOOD INTAKE,"[1]; Day 14, subtherapeutic dose: STG 5.5, HCQ 23, combination 5.5+23 mg/kg oral",10.83 g
same,Body Weight,"[1]; Day 14, therapeutic dose: STG 11, HCQ 46, STG+HCQ 11+46 mg/kg oral",149.00 ± 7.46 g
same,AVERAGE FOOD INTAKE,"[1]; Day 14, therapeutic dose: STG 11, HCQ 46, combination 11+46 mg/kg oral",9.83 g
same,AVERAGE WATER INTAKE,"[1]; Day 21, Sub-The (subtherapeutic dose)",27.00 mL
same,AVERAGE WATER INTAKE,"[1]; Day 21, The (therapeutic dose)",27.17 mL
same,AVERAGE FOOD INTAKE,"[1]; Day 21, subtherapeutic dose: STG 5.5, HCQ 23, combination 5.5+23 mg/kg oral",10.33 g
same,AVERAGE FOOD INTAKE,"[1]; Day 21, therapeutic dose: STG 11, HCQ 46, combination 11+46 mg/kg oral",8.83 g
same,Albumin,[2]; [4],2.20 g/dL
same,Creatinine,[2]; [4],1.76
same,HDL-C,[2]; [4],23.92 mg/dL
same,HbA1c,[2]; [4],5.12
same,Insulin (serum),[2]; [4],4.43
same,SGOT,[2]; [4],54.02
same,SGPT,[2]; [4],54.64
same,TC,[2]; [4],156.69 mg/dL
same,TG,[2]; [4],121.91 mg/dL
same,Total Protein,[2]; [4],4.15 g/dL
same,Urea,[2]; [4],45.05 mg/dL
same,Albumin,[2]; [5],2.63 g/dL
same,Creatinine,[2]; [5],1.63
same,HDL-C,[2]; [5],26.04 mg/dL
same,HbA1c,[2]; [5],5.04
same,Insulin (serum),[2]; [5],6.11
same,SGOT,[2]; [5],51.47
same,SGPT,[2]; [5],55.47
same,TC,[2]; [5],146.92 mg/dL
same,TG,[2]; [5],116.48 mg/dL
same,Total Protein,[2]; [5],4.83 g/dL
same,Urea,[2]; [5],23.57 mg/dL
same,Plasma glucose concentration,"[3]; 1st day, subtherapeutic dose: STG 5.5, HCQ 23, STG+HCQ 5.5+23 mg/kg oral",267.17 ± 12.83 mg/dL
same,Plasma glucose concentration,"[3]; 1st day, therapeutic dose: STG 11, HCQ 46, STG+HCQ 11+46 mg/kg oral",258.33 ± 11.57 mg/dL
same,Plasma glucose concentration,"[3]; 7th day, subtherapeutic dose: STG 5.5, HCQ 23, STG+HCQ 5.5+23 mg/kg oral",261.83 ± 11.58 mg/dL
same,Plasma glucose concentration,"[3]; 7th day, therapeutic dose: STG 11, HCQ 46, STG+HCQ 11+46 mg/kg oral",225.00 ± 12.63 mg/dL
same,Plasma glucose concentration,"[3]; 14th day, subtherapeutic dose: STG 5.5, HCQ 23, STG+HCQ 5.5+23 mg/kg oral",227.83 ± 13.95 mg/dL
same,Plasma glucose concentration,"[3]; 14th day, therapeutic dose: STG 11, HCQ 46, STG+HCQ 11+46 mg/kg oral, 46 mg/kg",206.17 ± 10.26 mg/dL
same,Plasma glucose concentration,"[3]; 14th day, therapeutic dose: STG 11, HCQ 46, STG+HCQ 11+46 mg/kg oral, listed as sitagliptin, 46 mg/kg",significant improvement
same,Plasma glucose concentration,"[3]; 21st day, subtherapeutic dose: STG 5.5, HCQ 23, STG+HCQ 5.5+23 mg/kg oral",200.83 ± 4.71 mg/dL
same,Plasma glucose concentration,"[3]; 21st day, therapeutic dose: STG 11, HCQ 46, STG+HCQ 11+46 mg/kg oral",156.50 ± 12.85 mg/dL
